We go through 25 molecules from paper PMC7307930, “Stereoselective Activity of 1-Propargyl-4-styrylpiperidine-like Analogues That Can Discriminate between Monoamine Oxidase Isoforms A and B” (Journal of Medicinal Chemistry, 2020).

For the first data set, the system named is Swiss mice. Nature of the data set: Elevated plus maze test. Particulars: acute ip, 1 mg/kg. The data set is classed as in vivo, mouse.
On to `CN1C(=O)CN=C(c2ccccc2)c2cc(Cl)ccc21` [Diazepam, reference compound], for which the “Open arm entries (%)” value amounted to 29.9 ±3.2%, the “Time in centre (%)” value was 37.6 ±5.8%, the “Time in open arms (%)” value is on record as 22.3 ±3.1% and the Total arm entries was 36.0 ±3.2.

The next data set concerns the target T1, 5-HT1A receptor (Rattus norvegicus, UniProt P19327).
T1 construct: from tissue; host or cells: rat (male Wistar) brain cortex membranes
T1 sequence (P19327 1-422): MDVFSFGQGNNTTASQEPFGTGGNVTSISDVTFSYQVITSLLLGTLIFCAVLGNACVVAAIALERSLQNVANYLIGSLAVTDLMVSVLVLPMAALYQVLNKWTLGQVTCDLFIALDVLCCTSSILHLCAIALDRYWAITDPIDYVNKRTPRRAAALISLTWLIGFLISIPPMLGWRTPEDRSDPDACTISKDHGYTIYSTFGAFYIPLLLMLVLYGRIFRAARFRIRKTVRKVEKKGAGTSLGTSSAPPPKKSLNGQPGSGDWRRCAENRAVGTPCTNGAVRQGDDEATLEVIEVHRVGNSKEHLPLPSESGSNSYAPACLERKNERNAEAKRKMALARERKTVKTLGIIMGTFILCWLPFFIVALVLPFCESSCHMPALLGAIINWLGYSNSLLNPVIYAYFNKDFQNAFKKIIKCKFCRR
Nature of the data set: [3H]-8-OH-DPAT radioligand binding assay, rat cortex membranes. As to conditions: [3H]-8-OH-DPAT binding, means ±SEM.
The term Ki denotes a dissociation constant, usually derived from enzyme kinetics or from competition with a known ligand. Higher therefore signals a looser hold on the target. `C#CCN1CCC(CCc2ccc(C#N)cc2)CC1` [Compound 102, 4-(2-(1-(Prop-2-yn-1-yl)piperidin-4-yl)ethyl)benzonitrile] yielded a Ki of 8.6 ± 1.7 µM.

The data set is the same for the next values; noted with them: read-out: Inhibition at 300 µM.
By inhibition is commonly meant the percentage by which the read-out fell short of the control. For the molecule `C#CCN1CCC(CCc2ccc(C#N)cc2)CC1` [Compound 102, 4-(2-(1-(Prop-2-yn-1-yl)piperidin-4-yl)ethyl)benzonitrile], the inhibition at 300 µM was determined as 78%.

A further data set deals with SH-SY5Y cells. Nature of the data set: MTS cytotoxicity assay. As to conditions: 24 h, 5 μM and 10 μM. In general terms: Tetrazolium dyes change colour on reduction, which living cells bring about.
`C#CCN1CCC(/C=C/c2ccc(F)cc2)CC1` [Compound 1, (E)-4-(4-Fluorostyryl)-1-(prop-2-yn-1-yl)piperidine]: the cytotoxic effects entry is “no significant cytotoxic effects”.
Consider `C#CCN1CCC(CCc2ccc(C(C)C)cc2)CC1` [Compound 97, 4-(4-Isopropylphenethyl)-1-(prop-2-yn-1-yl)piperidine], for which the cytotoxic effects entry is on record as “no significant cytotoxic effects”.
Still for that read-out and setting: the value for `C#CCN1CCC(CCc2ccc(C#N)cc2)CC1` [Compound 102, 4-(2-(1-(Prop-2-yn-1-yl)piperidin-4-yl)ethyl)benzonitrile] was “no significant cytotoxic effects”.

Tested on in another data set: not listed separately
Nature of the data set: Thermodynamic solubility in PBS. The format is physicochemical. Particulars: PBS (pH 7.4), 37 °C, 24 h, hydrochloride salts.
Turning to `C#CCN1CCC(CCc2ccc(C(C)C)cc2)CC1` [Compound 97, 4-(4-Isopropylphenethyl)-1-(prop-2-yn-1-yl)piperidine], the thermodynamic solubility is listed as ≥ 14.5 g/250 mL.

Another data set addresses T2, hMAO-A (Homo sapiens, UniProt P21397).
T2 construct: purchased Sigma Aldrich; host or cells: baculovirus-infected insect cells (BTI-TN-5B1-4)
T2 sequence (P21397 1-527): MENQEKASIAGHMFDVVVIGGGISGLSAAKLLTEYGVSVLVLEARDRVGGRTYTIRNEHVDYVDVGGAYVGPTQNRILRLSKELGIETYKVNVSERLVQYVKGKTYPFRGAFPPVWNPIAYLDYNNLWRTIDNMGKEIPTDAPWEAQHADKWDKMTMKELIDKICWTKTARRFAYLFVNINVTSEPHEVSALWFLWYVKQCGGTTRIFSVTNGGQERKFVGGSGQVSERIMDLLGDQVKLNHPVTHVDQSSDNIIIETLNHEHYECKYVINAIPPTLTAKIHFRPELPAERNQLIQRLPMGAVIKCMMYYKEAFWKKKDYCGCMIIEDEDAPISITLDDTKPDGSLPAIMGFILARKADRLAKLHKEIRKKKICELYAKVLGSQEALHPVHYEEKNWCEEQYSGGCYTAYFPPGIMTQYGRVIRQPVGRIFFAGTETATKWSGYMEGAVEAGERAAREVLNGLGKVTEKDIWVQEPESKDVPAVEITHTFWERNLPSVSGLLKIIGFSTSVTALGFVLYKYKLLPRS
Nature of the data set: hMAO-A inhibition, HRP–Amplex Red coupled fluorimetric assay. The data set is classed as biochemical. Particulars: supplement csv; RA at 100 micromolar.
Take `C#CCN1CCCC(/C=C/c2ccc(F)cc2)C1` (racemic) [Compound 19, (±)-(E)-3-(4-Fluorostyryl)-1-(prop-2-yn-1-yl)piperidine]: the “IC50(MAO-A) class” value was “na (na-not_active(RA_at_100micromolar>50%))”.
Still for that read-out and setting: the value for `C#CCN1CCCC(/C=C/c2cc(F)c(F)cc2F)C1` (racemic) [Compound 20, (±)-(E)-1-(Prop-2-yn-1-yl)-3-(2,4,5-trifluorostyryl)piperidine] was “na (na-not_active(RA_at_100micromolar>50%))”.
The same measure, in the same setting: as for `C#CCN1CCCC(CCc2ccc(F)cc2)C1` (racemic) [Compound 23, (±)-3-(4-Fluorophenethyl)-1-(prop-2-yn-1-yl)piperidine], the entry is “na (na-not_active(RA_at_100micromolar>50%))”; as for `C#CCN1CCCC(CCc2cc(F)c(F)cc2F)C1` (racemic) [Compound 24, (±)-3-(2,4,5-Trifluorophenethyl)-1-(prop-2-yn-1-yl)piperidine], “na (na-not_active(RA_at_100micromolar>50%))”.
Turning to `C#CCN1CCC(CCc2ccc(F)cc2)CC1` [Compound 25, 4-(4-Fluorophenethyl)-1-(prop-2-yn-1-yl)piperidine], the “IC50(MAO-A) class” value was “na (na-not_active(RA_at_100micromolar>50%))”.
`C#CCN1CCC(CCc2cc(F)c(F)cc2F)CC1` [Compound 26, 1-(Prop-2-yn-1-yl)-4-(2,4,5-trifluorophenethyl)piperidine]: the “IC50(MAO-A) class” value is given as “na (na-not_active(RA_at_100micromolar>50%))”.
The same measure, in the same setting: as for `C#CCN1CCC(/C=C\c2ccc(C)cc2)CC1` [Compound 75, (Z)-4-(4-Methylstyryl)-1-(prop-2-yn-1-yl)piperidine], the entry is “na (na-not_active(RA_at_100micromolar>50%))”; as for `C#CCN1CCC(/C=C/c2ccc(C)cc2)CC1` [Compound 76, (E)-4-(4-Methylstyryl)-1-(prop-2-yn-1-yl)piperidine], “na (na-not_active(RA_at_100micromolar>50%))”.
Regarding `C#CCN1CCC(/C=C/c2ccc(Br)cc2)CC1` [Compound 81, (E)-4-(4-Bromostyryl)-1-(prop-2-yn-1-yl)piperidine], the “IC50(MAO-A) class” value is given as “na (na-not_active(RA_at_100micromolar>50%))”.
Turning to `C#CCN1CCC(/C=C/c2ccc(OC)cc2)CC1` [Compound 82, (E)-4-(4-Methoxystyryl)-1-(prop-2-yn-1-yl)piperidine], the “IC50(MAO-A) class” value is given as “na (na-not_active(RA_at_100micromolar>50%))”.
On the same count and under the same terms, as for `C#CCN1CCC(/C=C\c2ccc(C(F)(F)F)cc2)CC1` [Compound 83, (Z)-1-(Prop-2-yn-1-yl)-4-(4-(trifluoromethyl)styryl)piperidine], the entry is “na (na-not_active(RA_at_100micromolar>50%))”.
Consider `C#CCN1CCC(/C=C\c2ccc(S(C)(=O)=O)cc2)CC1` [Compound 89, (Z)-4-(4-(Methylsulfonyl)styryl)-1-(prop-2-yn-1-yl)piperidine], for which the “IC50(MAO-A) class” value is “na (na-not_active(RA_at_100micromolar>50%))”.
Same read-out and setting: as for `C#CCN1CCC(/C=C/c2ccc(S(C)(=O)=O)cc2)CC1` [Compound 90, (E)-4-(4-(Methylsulfonyl)styryl)-1-(prop-2-yn-1-yl)piperidine], the entry is “na (na-not_active(RA_at_100micromolar>50%))”; as for `C#CCN1CCC(CCc2ccc(C)cc2)CC1` [Compound 96, 4-(4-Methylphenethyl)-1-(prop-2-yn-1-yl)piperidine], “na (na-not_active(RA_at_100micromolar>50%))”.
On the same count and under the same terms, as for `C#CCN1CCC(CCc2ccc(Cl)cc2)CC1` [Compound 98, 4-(4-Chlorophenethyl)-1-(prop-2-yn-1-yl)piperidine], the entry is “na (na-not_active(RA_at_100micromolar>50%))”.
For `C#CCN1CCC(CCc2ccc(OC)cc2)CC1` [Compound 99, 4-(4-Methoxyphenethyl)-1-(prop-2-yn-1-yl)piperidine], the “IC50(MAO-A) class” value is recorded as “na (na-not_active(RA_at_100micromolar>50%))”.
The same measure, in the same setting: as for `C#CCN1CCC(CCc2cccc(C(F)(F)F)c2)CC1` [Compound 101, 1-(Prop-2-yn-1-yl)-4-(3-(trifluoromethyl)phenethyl)piperidine], the entry is “na (na-not_active(RA_at_100micromolar>50%))”; as for `C#CCN1CCC(/C=C\c2ccc(C(N)=O)cc2)CC1` [Compound 104, (Z)-4-(2-(1-(Prop-2-yn-1-yl)piperidin-4-yl)vinyl)benzamide], “na (na-not_active(RA_at_100micromolar>50%))”.
On the same count and under the same terms, as for `C#CCN1CCC(/C=C/c2ccc(C(N)=O)cc2)CC1` [Compound 105, (E)-4-(2-(1-(Prop-2-yn-1-yl)piperidin-4-yl)vinyl)benzamide], the entry is “na (na-not_active(RA_at_100micromolar>50%))”; as for `C#CCN1CCC(CCc2ccc(C(N)=O)cc2)CC1` [Compound 106, 4-(2-(1-(Prop-2-yn-1-yl)piperidin-4-yl)ethyl)benzamide], “na (na-not_active(RA_at_100micromolar>50%))”; as for `C#CCN1CCC(CCc2ccc(O)cc2)CC1` [Compound 107, 4-(2-(1-(Prop-2-yn-1-yl)piperidin-4-yl)ethyl)phenol], “na (na-not_active(RA_at_100micromolar>50%))”.
